This note sets out measurements from patent US12024506B2, “Compounds” (Oxford University Innovation Limited, priority 2018, dated 2024).

By pIC50 is commonly meant −log10 of the IC50, conventionally taken in molar units. Low values mean a high IC50, high ones a low IC50.

pIC50: −log10 of the molar value. Entries after “also recorded” stand apart in the source; their conditions may differ.

In one test the test system is HT1080 cells. The test can be described thus: Cell viability assay 2 (CellTiterGlo), HT1080 cells. The following applies: Homo sapiens, HT-1080, cell line printed as HCT1080, 48 or 72 h. Format: cell-based. How it is done:
Cancer cell lines were in seeded in ViewPlates-96 microplates (PerkinElmer). HT1080 cells at 7500 cells per well and cultured in DMEM, high glucose, GlutaMAX media containing 10% FBS at 37° C. in 5% CO2 atmosphere. Cells were cultured overnight and the compounds (dissolved in DMSO and diluted to 0.2% DMSO) were added to the cells at concentrations ranging from 0 to 20 μM. The cells were incubated under standard culture conditions for either 24, 48 or 72 h. Cell viability was as quantitated using the CellTiterGlo Luminescent Cell Viability Assay (Promega) according to the manufacturer's instructions to measure ATP generated by metabolically active cells. Luminescent signals were measured using an Envision 2103 Multilabel Microplate Reader (PerkinElmer). The luminescence signals obtained from the compound-treated cells were normalized against the signal for DMSO-only treated cells.
(In general: In ATP-based viability assays light output follows the ATP content of the culture.)

Test [1] concerns the target T1, HRASG12V interaction with PI3K, CRAF, RALGDS (Homo sapiens, UniProt P01112, G12V).
T1 construct: expressed in transfected cells; host or cells: HEK293T
The test can be described thus: BRET2 cell assay, HRAS G12V-effector interaction. Format: cell-based. To be noted: HEK293T cells, 5, 10 and 20 μM, 20 h. An excerpt:
The BRET ratio corresponds to the light emitted by the GFP2 acceptor constructs (515 nm±30) upon addition of Coelenterazine 400a divided by the light emitted by the RLuc8 donor constructs (410 nm±80). The normalized BRET ratio is the BRET ratio normalized to the DMSO negative and calculated as follows: (BRETcompound/BRETDMSO)×100, where BRETcompound corresponds to the BRET ratio for the compound-treated cells, BRETDMSO to the DMSO-treated cells. Each experiment was repeated at least three times. Statistical analyses were performed using a one-way ANOVA followed by Dunnett's post-tests (*P<0.05, **P<0.01, ***P<0.001, ****P<0.0001). Where error bars are presented, they correspond to mean values±SD of biological repeats (a-c).
HEK293T cells were transfected 24 hr with plasmids expressing the NRAS Q61H […] and HRAS G12V (B, D) biosensors together with the indicated RBDs of PI3K, CRAF and RALGDS (A, B) or full-length CRAF. […]
650,000 HEK293T were seeded in each well of a 6 well plate. […] The final concentrations in the cells were 0, 5, 10 and 20 µM (therefore the intermediate 10× concentrations were 0, 50, 100 and 200 μM. 10 μL of 10× compounds were added in each well of the 96 well plate to 0, 5, 10 and 20 µM final concentrations (with final 0.2% DMSO each). Quadruplicates were performed for each point. Cells were left for an additional 20 hours at 37° C. before the BRET2 signal reading directly after addition of Coelenterazine 400a substrate (10 µM final) to cells (Cayman Chemicals, cat #16157). BRET2 reading was carried out on an Envision instrument (2103 Multilabel Reader, PerkinElmer) with the BRET2 Dual Emission optical module (515 nm±30 and 410 nm±80; PerkinElmer).
The ability of Example compound 56 to inhibit RAS-effector PPI using the above cell-based RAS-effector BRET2 assay was investigated. […] We determined the effect of compound 56 (labelled Abd-7) on the interaction of KRAS^G12D and with PI3Kα and PI3Kγ, CRAF RAS-binding domain (RBD) and RALGDS RAS-associating domain (RA) compared with the low affinity Reference Compound Abd-2 FIG. 1a). […]

Regarding `COc1nc(-c2cccc3c2OCCO3)ccc1Nc1ccc(CN(C)C)cc1` [compound 56, [6-(2,3-Dihydro-benzo[1,4]dioxin-5-yl)-2-methoxy-pyridin-3-yl]-(4-dimethylaminomethyl-phenyl)-amine], in the test on HT1080 cells, the negative-log IC50 (pIC50) was 5.00. In addition, in test [1], the “Effect on BRET signal, HRAS G12V/effector interactions” value is “interferes with all mutant RAS family member PPIs”.

In the case of `COc1cc(-c2cccc3c2OCCO3)ccc1Nc1cccc(CN(C)C)c1.O=CO` [compound 72, [4-(2,3-Dihydro-benzo[1,4]dioxin-5-yl)-2-methoxy-phenyl]-(3-dimethylaminomethyl-phenyl)-amine formate salt], the “Effect on BRET signal, HRAS G12V/effector interactions” value in test [1] (formate salt) is on record as “inhibits; also recorded: disturbs the BRET2 signal in dose response manner”.
